Measurements taken from the supplement of paper PMC10307832.

Experiments:
Assay in all cases: relative viability (nuclei count vs DMSO), 5 days (fraction); higher = more cells survive
Bexarotene + Navitoclax = compound: C=C(c1ccc(C(=O)O)cc1)c1cc2c(cc1C)C(C)(C)CCC2(C)C [Bexarotene] + CC1(C)CCC(c2ccc(Cl)cc2)=C(CN2CCN(c3ccc(C(=O)NS(=O)(=O)c4ccc(N[C@H](CCN5CCOCC5)CSc5ccccc5)c(S(=O)(=O)C(F)(F)F)c4)cc3)CC2)C1 [Navitoclax] (partner 0.5 µM)
In short: (§1)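 Relative viability was taken as the ratio of nuclei in treated wells to nuclei in vehicle wells. Lung cancer cell lines in 1536-well plates received compounds by pin tool one day after seeding, either one drug alone or a fixed anchor-drug dose plus five library-drug doses (not always all listed) in √10 steps. Nuclei were counted on 4× images after 5 days of treatment, and values are medians of duplicate plates.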

Bexarotene + Linsitinib = compound: C=C(c1ccc(C(=O)O)cc1)c1cc2c(cc1C)C(C)(C)CCC2(C)C [Bexarotene] + C[C@]1(O)C[C@@H](c2nc(-c3ccc4ccc(-c5ccccc5)nc4c3)c3c(N)nccn32)C1 [Linsitinib] (partner 1 µM)
In short: as §1

Bexarotene + Alpelisib = compound: C=C(c1ccc(C(=O)O)cc1)c1cc2c(cc1C)C(C)(C)CCC2(C)C [Bexarotene] + Cc1nc(NC(=O)N2CCC[C@H]2C(N)=O)sc1-c1ccnc(C(C)(C)C(F)(F)F)c1 [Alpelisib] (partner 2 µM)
In short: as §1

Bexarotene + Vorinostat = compound: C=C(c1ccc(C(=O)O)cc1)c1cc2c(cc1C)C(C)(C)CCC2(C)C [Bexarotene] + O=C(CCCCCCC(=O)Nc1ccccc1)NO [Vorinostat] (partner 1 µM)
In short: as §1

NCI-H2085
relative viability (Bexarotene + Navitoclax; first compound 0.08 µM): 1.09
relative viability (Bexarotene + Navitoclax; first compound 0.253 µM): 1.13
relative viability (Bexarotene + Navitoclax; first compound 0.8 µM): 0.961
relative viability (Bexarotene + Navitoclax; first compound 2.53 µM): 0.949
relative viability (Bexarotene + Navitoclax; first compound 8 µM): 0.924
relative viability (Bexarotene + Linsitinib; first compound 0.08 µM): 0.776
relative viability (Bexarotene + Linsitinib; first compound 0.253 µM): 0.793
relative viability (Bexarotene + Linsitinib; first compound 0.8 µM): 0.797
relative viability (Bexarotene + Linsitinib; first compound 2.53 µM): 0.685
relative viability (Bexarotene + Linsitinib; first compound 8 µM): 0.712
relative viability (Bexarotene + Alpelisib; first compound 0.08 µM): 0.892
relative viability (Bexarotene + Alpelisib; first compound 0.253 µM): 0.924
relative viability (Bexarotene + Alpelisib; first compound 0.8 µM): 0.873
relative viability (Bexarotene + Alpelisib; first compound 2.53 µM): 0.855
relative viability (Bexarotene + Alpelisib; first compound 8 µM): 0.824
relative viability (Bexarotene + Vorinostat; first compound 0.08 µM): 0.672
relative viability (Bexarotene + Vorinostat; first compound 0.253 µM): 0.804
relative viability (Bexarotene + Vorinostat; first compound 0.8 µM): 0.69
relative viability (Bexarotene + Vorinostat; first compound 2.53 µM): 0.719
relative viability (Bexarotene + Vorinostat; first compound 8 µM): 0.692

IA-LM
relative viability (Bexarotene + Navitoclax; first compound 0.08 µM): 0.6
relative viability (Bexarotene + Navitoclax; first compound 0.253 µM): 0.785
relative viability (Bexarotene + Navitoclax; first compound 0.8 µM): 0.724
relative viability (Bexarotene + Navitoclax; first compound 2.53 µM): 0.603
relative viability (Bexarotene + Navitoclax; first compound 8 µM): 0.664
relative viability (Bexarotene + Linsitinib; first compound 0.08 µM): 0.682
relative viability (Bexarotene + Linsitinib; first compound 0.253 µM): 0.581
relative viability (Bexarotene + Linsitinib; first compound 0.8 µM): 0.523
relative viability (Bexarotene + Linsitinib; first compound 2.53 µM): 0.603
relative viability (Bexarotene + Linsitinib; first compound 8 µM): 0.51
relative viability (Bexarotene + Alpelisib; first compound 0.08 µM): 0.771
relative viability (Bexarotene + Alpelisib; first compound 0.253 µM): 0.702
relative viability (Bexarotene + Alpelisib; first compound 0.8 µM): 0.67
relative viability (Bexarotene + Alpelisib; first compound 2.53 µM): 0.581
relative viability (Bexarotene + Alpelisib; first compound 8 µM): 0.669
relative viability (Bexarotene + Vorinostat; first compound 0.08 µM): 0.79
relative viability (Bexarotene + Vorinostat; first compound 0.253 µM): 0.817
relative viability (Bexarotene + Vorinostat; first compound 0.8 µM): 0.756
relative viability (Bexarotene + Vorinostat; first compound 2.53 µM): 0.718
relative viability (Bexarotene + Vorinostat; first compound 8 µM): 0.7

H3255
relative viability (Bexarotene + Navitoclax; first compound 0.08 µM): 0.528
relative viability (Bexarotene + Navitoclax; first compound 0.253 µM): 0.473
relative viability (Bexarotene + Navitoclax; first compound 0.8 µM): 0.534
relative viability (Bexarotene + Navitoclax; first compound 2.53 µM): 0.5
relative viability (Bexarotene + Navitoclax; first compound 8 µM): 0.543
relative viability (Bexarotene + Linsitinib; first compound 0.08 µM): 0.964
relative viability (Bexarotene + Linsitinib; first compound 0.253 µM): 0.995
relative viability (Bexarotene + Linsitinib; first compound 0.8 µM): 0.985
relative viability (Bexarotene + Linsitinib; first compound 2.53 µM): 0.991
relative viability (Bexarotene + Linsitinib; first compound 8 µM): 0.934
relative viability (Bexarotene + Alpelisib; first compound 0.08 µM): 0.655
relative viability (Bexarotene + Alpelisib; first compound 0.253 µM): 0.789
relative viability (Bexarotene + Alpelisib; first compound 0.8 µM): 0.715
relative viability (Bexarotene + Alpelisib; first compound 2.53 µM): 0.862
relative viability (Bexarotene + Alpelisib; first compound 8 µM): 0.72
relative viability (Bexarotene + Vorinostat; first compound 0.08 µM): 0.759
relative viability (Bexarotene + Vorinostat; first compound 0.253 µM): 0.913
relative viability (Bexarotene + Vorinostat; first compound 0.8 µM): 0.843
relative viability (Bexarotene + Vorinostat; first compound 2.53 µM): 0.787
relative viability (Bexarotene + Vorinostat; first compound 8 µM): 0.869

LOU-NH91
relative viability (Bexarotene + Navitoclax; first compound 0.08 µM): 0.608
relative viability (Bexarotene + Navitoclax; first compound 0.253 µM): 0.637
relative viability (Bexarotene + Navitoclax; first compound 0.8 µM): 0.502
relative viability (Bexarotene + Navitoclax; first compound 2.53 µM): 0.597
relative viability (Bexarotene + Navitoclax; first compound 8 µM): 0.512
relative viability (Bexarotene + Linsitinib; first compound 0.08 µM): 0.912
relative viability (Bexarotene + Linsitinib; first compound 0.253 µM): 0.901
relative viability (Bexarotene + Linsitinib; first compound 0.8 µM): 0.806
relative viability (Bexarotene + Linsitinib; first compound 2.53 µM): 0.79
relative viability (Bexarotene + Linsitinib; first compound 8 µM): 0.823
relative viability (Bexarotene + Alpelisib; first compound 0.08 µM): 0.633
relative viability (Bexarotene + Alpelisib; first compound 0.253 µM): 0.653
relative viability (Bexarotene + Alpelisib; first compound 0.8 µM): 0.601
relative viability (Bexarotene + Alpelisib; first compound 2.53 µM): 0.632
relative viability (Bexarotene + Alpelisib; first compound 8 µM): 0.616
relative viability (Bexarotene + Vorinostat; first compound 0.08 µM): 0.973
relative viability (Bexarotene + Vorinostat; first compound 0.253 µM): 0.956
relative viability (Bexarotene + Vorinostat; first compound 0.8 µM): 0.933
relative viability (Bexarotene + Vorinostat; first compound 2.53 µM): 0.836
relative viability (Bexarotene + Vorinostat; first compound 8 µM): 0.849

NCI-H3122
relative viability (Bexarotene + Navitoclax; first compound 0.08 µM): 1.12
relative viability (Bexarotene + Navitoclax; first compound 0.253 µM): 1.11
relative viability (Bexarotene + Navitoclax; first compound 0.8 µM): 1.1
relative viability (Bexarotene + Navitoclax; first compound 2.53 µM): 1.01
relative viability (Bexarotene + Navitoclax; first compound 8 µM): 1.09
relative viability (Bexarotene + Linsitinib; first compound 0.08 µM): 1.14
relative viability (Bexarotene + Linsitinib; first compound 0.253 µM): 1.08
relative viability (Bexarotene + Linsitinib; first compound 0.8 µM): 1.1
relative viability (Bexarotene + Linsitinib; first compound 2.53 µM): 1.07
relative viability (Bexarotene + Linsitinib; first compound 8 µM): 1.14
relative viability (Bexarotene + Alpelisib; first compound 0.08 µM): 0.782
relative viability (Bexarotene + Alpelisib; first compound 0.253 µM): 0.8
relative viability (Bexarotene + Alpelisib; first compound 0.8 µM): 0.784
relative viability (Bexarotene + Alpelisib; first compound 2.53 µM): 0.786
relative viability (Bexarotene + Alpelisib; first compound 8 µM): 0.847
relative viability (Bexarotene + Vorinostat; first compound 0.08 µM): 1.17
relative viability (Bexarotene + Vorinostat; first compound 0.253 µM): 1
relative viability (Bexarotene + Vorinostat; first compound 0.8 µM): 1.01
relative viability (Bexarotene + Vorinostat; first compound 2.53 µM): 1.12
relative viability (Bexarotene + Vorinostat; first compound 8 µM): 1.11

PC-3 [JPC-3]
relative viability (Bexarotene + Navitoclax; first compound 0.08 µM): 0.86
relative viability (Bexarotene + Navitoclax; first compound 0.253 µM): 0.904
relative viability (Bexarotene + Navitoclax; first compound 0.8 µM): 0.754
relative viability (Bexarotene + Navitoclax; first compound 2.53 µM): 0.797
relative viability (Bexarotene + Navitoclax; first compound 8 µM): 0.693
relative viability (Bexarotene + Linsitinib; first compound 0.08 µM): 0.98
relative viability (Bexarotene + Linsitinib; first compound 0.253 µM): 1.03
relative viability (Bexarotene + Linsitinib; first compound 0.8 µM): 0.829
relative viability (Bexarotene + Linsitinib; first compound 2.53 µM): 0.882
relative viability (Bexarotene + Linsitinib; first compound 8 µM): 0.827
relative viability (Bexarotene + Alpelisib; first compound 0.08 µM): 1.06
relative viability (Bexarotene + Alpelisib; first compound 0.253 µM): 1.08
relative viability (Bexarotene + Alpelisib; first compound 0.8 µM): 0.815
relative viability (Bexarotene + Alpelisib; first compound 2.53 µM): 0.984
relative viability (Bexarotene + Alpelisib; first compound 8 µM): 0.932
relative viability (Bexarotene + Vorinostat; first compound 0.08 µM): 0.963
relative viability (Bexarotene + Vorinostat; first compound 0.253 µM): 0.639
relative viability (Bexarotene + Vorinostat; first compound 0.8 µM): 0.737
relative viability (Bexarotene + Vorinostat; first compound 2.53 µM): 0.417
relative viability (Bexarotene + Vorinostat; first compound 8 µM): 0.599

NCI-H1651
relative viability (Bexarotene + Navitoclax; first compound 0.08 µM): 1.1
relative viability (Bexarotene + Navitoclax; first compound 0.253 µM): 1.09
relative viability (Bexarotene + Navitoclax; first compound 0.8 µM): 1.11
relative viability (Bexarotene + Navitoclax; first compound 2.53 µM): 1.22
relative viability (Bexarotene + Navitoclax; first compound 8 µM): 0.925
relative viability (Bexarotene + Linsitinib; first compound 0.08 µM): 1.12
relative viability (Bexarotene + Linsitinib; first compound 0.253 µM): 0.934
relative viability (Bexarotene + Linsitinib; first compound 0.8 µM): 1.02
relative viability (Bexarotene + Linsitinib; first compound 2.53 µM): 1.08
relative viability (Bexarotene + Linsitinib; first compound 8 µM): 0.984
relative viability (Bexarotene + Alpelisib; first compound 0.08 µM): 1
relative viability (Bexarotene + Alpelisib; first compound 0.253 µM): 1
relative viability (Bexarotene + Alpelisib; first compound 0.8 µM): 1.09
relative viability (Bexarotene + Alpelisib; first compound 2.53 µM): 0.997
relative viability (Bexarotene + Alpelisib; first compound 8 µM): 0.921
relative viability (Bexarotene + Vorinostat; first compound 0.08 µM): 0.693
relative viability (Bexarotene + Vorinostat; first compound 0.253 µM): 0.604
relative viability (Bexarotene + Vorinostat; first compound 0.8 µM): 0.62
relative viability (Bexarotene + Vorinostat; first compound 2.53 µM): 0.602
relative viability (Bexarotene + Vorinostat; first compound 8 µM): 0.608

NCI-H2087
relative viability (Bexarotene + Navitoclax; first compound 0.08 µM): 1.11
relative viability (Bexarotene + Navitoclax; first compound 0.253 µM): 0.944
relative viability (Bexarotene + Navitoclax; first compound 0.8 µM): 1.1
relative viability (Bexarotene + Navitoclax; first compound 2.53 µM): 0.848
relative viability (Bexarotene + Navitoclax; first compound 8 µM): 0.759
relative viability (Bexarotene + Linsitinib; first compound 0.08 µM): 1.01
relative viability (Bexarotene + Linsitinib; first compound 0.253 µM): 0.963
relative viability (Bexarotene + Linsitinib; first compound 0.8 µM): 0.89
relative viability (Bexarotene + Linsitinib; first compound 2.53 µM): 0.896
relative viability (Bexarotene + Linsitinib; first compound 8 µM): 0.827
relative viability (Bexarotene + Alpelisib; first compound 0.08 µM): 1.27
relative viability (Bexarotene + Alpelisib; first compound 0.253 µM): 1.11
relative viability (Bexarotene + Alpelisib; first compound 0.8 µM): 1.08
relative viability (Bexarotene + Alpelisib; first compound 2.53 µM): 0.997
relative viability (Bexarotene + Alpelisib; first compound 8 µM): 1.05
relative viability (Bexarotene + Vorinostat; first compound 0.08 µM): 1.07
relative viability (Bexarotene + Vorinostat; first compound 0.253 µM): 0.765
relative viability (Bexarotene + Vorinostat; first compound 0.8 µM): 0.642
relative viability (Bexarotene + Vorinostat; first compound 2.53 µM): 1.09
relative viability (Bexarotene + Vorinostat; first compound 8 µM): 0.841
